Source: patent US20160257697A1, “THIOPHENE-SUBSTITUTED TETRACYCLIC COMPOUNDS AND METHODS OFUSE THEREOF FOR THE TREATMENT OF VIRAL DISEASES” (priority 2013, published 2016)
Read-outs that look alike come from different tables or passages of the source.

Columns and labels:
Experiment in all cases: microbe, parasite or virus in culture
Assay type in all cases: cell-based, Hepatitis C virus (HCV)
Settings in all cases: Replicon Assay A
HCV replicon 1A = tested on: HCV replicon 1A
Summary of the method: (§1)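 HCV replicon RNA levels were quantified by TaqMan RT-PCR after 3-day compound exposure (0.5% DMSO, 5% FBS). Cyclophilin RNA, co-amplified in the same reaction, served as endogenous control; Ct values were converted to RNA amounts using linear regression standard curves.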

HCV replicon 2B = tested on: HCV replicon 2B
Summary of the method: as §1

HCV replicon 1AY93H = tested on: HCV replicon 1AY93H
Summary of the method: as §1

[1] = Hepatitis C virus, HCV replicon 1A
[2] = Hepatitis C virus, read-out: 2B IC50, HCV replicon 2B
[3] = Hepatitis C virus, read-out: 1A Y93H IC50, HCV replicon 1A Y93H
[4] = read-out: 1A Y93H IC50, replicon 1AY93H
[5] = Hepatitis C virus, read-out: 2B IC50 (nM), replicon 2B
[6] = Hepatitis C virus, read-out: 1A Y93H IC50 (nM), replicon 1AY93H
[7] = read-out: 2B IC50, HCV replicon 2B
[8] = read-out: 1A Y93H IC50, HCV replicon 1A Y93H

Row | SMILES | IC50 (HCV replicon 1A; replicon 1A) [nM] | IC50 (HCV replicon 2B; read-out: 2B IC50, replicon 2B) [nM] | IC50 (HCV replicon 1AY93H; [4]) [nM] | IC50 (HCV replicon 2B; [5]) [nM] | IC50 (HCV replicon 1AY93H; [6]) [nM] | IC50 (HCV replicon 1A; Hepatitis C virus, replicon 1A) [nM] | other results
1 | COC(=O)N[C@H](C(=O)N1CCC[C@H]1c1ncc(-c2ccc3c(c2)O[C@@H](c2cc4cc(OC)ccc4s2)n2c-3cc3cc(-c4cnc([C@@H]5CCCN5C(=O)[C@@H](NC(=O)OC)C(C)C)[nH]4)ccc32)[nH]1)C(C)C [Compound 758] | – | – | – | – | – | – | IC50 (HCV replicon 1A; [1]): 0.005 nM; IC50 (HCV replicon 2B; [2]): 0.43 nM; IC50 (HCV replicon 1AY93H; [3]): 0.17 nM
2 | CCc1ccc(C2Oc3cc(-c4cnc([C@@H]5CCCN5C(=O)[C@@H](NC(=O)OC)C(C)C)[nH]4)cc(F)c3-c3cc4cc(-c5cnc([C@@H]6CCCN6C(=O)C(NC(=O)OC)C6CCOC(C)(C)C6)[nH]5)ccc4n32)s1 (single isomer, unassigned) [Compound 146] | 0.0012 | 0.38 | 0.57 | – | – | – | –
3 | COC(=O)NC(C(=O)N1CCC[C@H]1c1ncc(-c2ccc3c(c2)cc2n3C(c3ccc(C4CC4)s3)Oc3cc(-c4cnc([C@@H]5CCCN5C(=O)[C@@H](NC(=O)OC)C(C)C)[nH]4)cc(F)c3-2)[nH]1)C1CC2CCC(C1)O2 (single isomer, unassigned) [Compound 181] | 0.0023 | – | – | 0.083 | 0.054 | – | –
4 | COC(=O)NC(C(=O)N1CCC[C@H]1c1ncc(-c2ccc3c(c2)cc2n3C(c3ccc(C4CC4)s3)Oc3cc(-c4cnc([C@@H]5CCCN5C(=O)[C@@H](NC(=O)OC)C(C)C)[nH]4)cc(F)c3-2)[nH]1)C1CCOC(C)(C)C1 (single isomer, unassigned) [Compound 221] | 0.0022 | 0.21 | 0.18 | – | – | – | –
5 | COC(=O)N[C@H](C(=O)N1CCC[C@H]1c1ncc(-c2cc(F)c3c(c2)OC(c2ccc(C4CC4)s2)n2c-3c(F)c3cc(-c4cnc([C@@H]5CCCN5C(=O)[C@@H](NC(=O)OC)C(C)C)[nH]4)ccc32)[nH]1)C(C)C (single isomer, unassigned) [Compound 73] | – | – | – | 5.14 | 2.26 | 0.0016 | –
6 | COC(=O)NC(C(=O)N1CCC[C@H]1c1ncc(-c2ccc3c(c2)cc2n3C(c3ccc(CC(F)(F)F)s3)Oc3cc(-c4cnc([C@@H]5CCCN5C(=O)[C@@H](NC(=O)OC)C(C)C)[nH]4)cc(F)c3-2)[nH]1)C1C[C@@H](C)O[C@@H](C)C1 (stereo partly drawn) [Compound 381] | – | – | – | 0.181 | 0.141 | 0.0014 | –
7 | COC(=O)N[C@H](C(=O)N1CCC[C@H]1c1ncc(-c2cc(F)c3c(c2)OC(c2ccc(C4(N)CC4)s2)n2c-3cc3cc(-c4cnc([C@@H]5CCCN5C(=O)[C@@H](NC(=O)OC)C(C)C)[nH]4)ccc32)[nH]1)C(C)C (mixture of isomers) [Compound 57] | – | – | – | 2.79 | 0.37 | 0.0114 | –
8 | CCN(CC)[C@@H](C(=O)N1C[C@H](F)C[C@H]1c1nc(-c2ccc3c(c2)OC(c2ccc(Cl)s2)n2c-3cc3cc(-c4c[nH]c([C@@H]5C[C@@H](F)CN5C(=O)[C@@H](c5ccccc5)N(CC)CC)n4)ccc32)c[nH]1)c1ccccc1 (mixture of isomers) [Compound 732] | – | – | – | – | – | – | IC50 (HCV replicon 1A; [1]): 0.16 nM; IC50 (HCV replicon 2B; [2]): 12.5 nM; IC50 (HCV replicon 1AY93H; [3]): 0.4 nM
9 | COC(=O)N[C@H](C(=O)N1CCC[C@H]1c1ncc(-c2ccc3c(c2)OC(c2ccc(C4CC4)s2)n2c-3c(F)c3cc(-c4cnc([C@@H]5C[C@H]6C[C@H]6N5C(=O)[C@@H](NC(=O)OC)C(C)C)[nH]4)ccc32)[nH]1)C(C)C (single isomer, unassigned) [Compound 612] | – | – | – | – | – | – | IC50 (HCV replicon 1A; HCV replicon 1A): 0.0016 nM; IC50 (HCV replicon 2B; [7]): 2.21 nM; IC50 (HCV replicon 1AY93H; [8]): 0.469 nM
10 | COC(=O)N[C@H](C(=O)N1CCC[C@H]1c1ncc(-c2cc(F)c3c(c2)OC(c2sc(C4CC4)cc2C)n2c-3cc3cc(-c4cnc([C@@H]5CCCN5C(=O)[C@@H](NC(=O)OC)C(C)C)[nH]4)ccc32)[nH]1)C(C)C (single isomer, unassigned) [Compound 328] | – | 1.73 | 2.8 | – | – | 0.001 | –
11 | COC(=O)N[C@H](C(=O)N1CCC[C@H]1c1ncc(-c2ccc3c(c2)OC(c2cc4ccccc4s2)n2c-3cc3cc(-c4cnc([C@@H]5C[C@H]6C[C@H]6N5C(=O)[C@@H](NC(=O)OC)C(C)C)[nH]4)ccc32)[nH]1)C(C)C (single isomer, unassigned) [Compound 609] | – | – | – | – | – | – | IC50 (HCV replicon 1A; HCV replicon 1A): 0.0074 nM; IC50 (HCV replicon 2B; [7]): 0.995 nM; IC50 (HCV replicon 1AY93H; [8]): 18 nM
12 | COC(=O)NC(C(=O)N1CCC[C@H]1c1ncc(-c2ccc3c(c2)cc2n3C(c3ccc(C(C)C)s3)Oc3cc(-c4cnc([C@@H]5CCCN5C(=O)[C@@H](NC(=O)OC)C(C)C)[nH]4)cc(F)c3-2)[nH]1)C1C[C@@H](C)O[C@@H](C)C1 (single isomer, unassigned) [Compound 232] | 0.0027 | 0.63 | 0.2 | – | – | – | –
13 | CCOC(C)[C@H](NC(=O)OC)C(=O)N1CCC[C@H]1c1ncc(-c2cc(F)c3c(c2)OC(c2cc(C)c(C)s2)n2c-3cc3cc(-c4cnc([C@@H]5CCCN5C(=O)[C@@H](NC(=O)OC)C(C)C)[nH]4)ccc32)[nH]1 (single isomer, unassigned) [Compound 80] | 0.0027 | 3.16 | 4.87 | – | – | – | –
